The term IC50 denotes the concentration at which inhibition is half-maximal.

For the assay, the target named is T1, human MRGPRX4 (Homo sapiens, UniProt Q96LA9).
T1 construct: expressed in transfected cells
T1 sequence (Q96LA9 whole entry): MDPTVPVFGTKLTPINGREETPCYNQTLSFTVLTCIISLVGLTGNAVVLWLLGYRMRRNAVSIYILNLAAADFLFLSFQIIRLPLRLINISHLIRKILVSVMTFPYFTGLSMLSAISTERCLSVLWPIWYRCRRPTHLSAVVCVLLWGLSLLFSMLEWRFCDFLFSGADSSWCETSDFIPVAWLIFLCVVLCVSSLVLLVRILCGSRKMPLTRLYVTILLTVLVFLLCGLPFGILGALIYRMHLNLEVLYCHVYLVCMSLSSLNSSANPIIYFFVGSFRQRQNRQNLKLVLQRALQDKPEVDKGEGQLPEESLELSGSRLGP
As to the kind of experiment: MRGPRX4 antagonist calcium (FLIPR, Fluo-8) assay in HEK293T cells stably expressing human MRGPRX4, agonist 0.2 μM deoxycholic acid-3-phosphoric acid. The class given is cell-based. As to conditions: HEK293T cells stably expressing human MRGPRX4; antagonist mode; top conc. 30 μM, ten 3-fold serial dilutions; C may also mean <40% inhibition at 2 μM; read-out: Antagonist activity (IC50 class). The protocol:
HEK293T cells stably expressing human MRGPRX4 were cultured in DMEM medium supplements with 10% FBS, 100 U/mL penicillin-streptomycin, 20 mM HEPES and 1 μg/mL puromycin at 37° C. with 5% (v/v) CO2. One day before test, the cells were detached using TrypLE™ Express and counted using cell counter. In a 384-well plate cells were seeded at a density of 20,000 cells/well in 20 uL/well planting medium (DMEM medium supplements with 5% FBS, 100 U/mL penicillin-streptomycin and 20 mM HEPES), and incubated overnight at 37° C. with 5% (v/v) CO2. On the day of experiments, the dye solution, prepared following the manufacture's instruction of the Screen Quest™ Fluo-8 No Wash Calcium Assay Kit, was added to each well (20 μL/well) of the cell plate. The cell plate was incubated at 25° C. for 1 hour. Test compounds in different doses were transferred to the cell plate by FLIPR and the plate was kept in the dark at 25° C. for 30 minutes. The agonist solution, 0.2 μM of deoxycholic acid-3-phosphoric acid in assay buffer, was added to each well of the plate. The plate was read for 160 sec with 1 sec interval to obtain data of antagonist mode in FLIPR. For various compounds, IC50 values were calculated by fitting % inhibition against log of compound concentrations (top conc. 30 μM, ten 3-fold serial dilutions) with Hill equation using XLfit. […] Those skilled in the art appreciate that IC50 of various compounds can be assessed in accordance with the present disclosure.
Regarding `O=C(O)c1ccc(F)c(C2Cc3cc(C(F)(F)F)ccc3O2)c1` (stereo not shown) [Example 54], the IC50 was over 10 µM.

For `O=C(O)c1ccc(C2Cc3cc(C(F)(F)F)ccc3O2)cc1F` (stereo not shown) [Example 55], the IC50 is over 10 µM.

Turning to `COc1c(C(=O)O)cccc1C1Cc2cc(C(F)(F)F)ccc2O1` (stereo not shown) [Example 56], the IC50 is over 10 µM.

As for `O=C(O)c1cc(F)cc(C2Cc3cc(C(F)(F)F)ccc3O2)c1` (stereo not shown) [Example 57], the IC50 fell in the range of 1 to 10 µM.

As to `COc1cc(C(=O)O)cc(C2Cc3cc(C(F)(F)F)ccc3O2)c1` (stereo not shown) [Example 58], the IC50 was over 10 µM.

Regarding `O=C(O)c1ccc(C2Cc3ccccc3O2)cc1` (stereo not shown) [Example 59], the IC50 is over 10 µM.

On to `O=C(O)c1cccc(C2Cc3cc(C(F)(F)F)ccc3O2)c1` (stereo not shown) [Example 60], for which the IC50 was in the range of 1 to 10 µM.

Take `O=C(O)c1ccc(C2Cc3cc(C(F)(F)F)ccc3O2)cc1` (stereo not shown) [Example 61]: the IC50 was over 10 µM.

With `O=C(O)c1cc(Cl)cc(C2Cc3cc(C(F)(F)F)ccc3O2)c1` (stereo not shown) [Example 62], the IC50 was in the range of 1 to 10 µM.

Consider `O=C(O)c1cccc(C2Cc3cc(Cl)ccc3O2)c1F` (stereo not shown) [Example 63], for which the IC50 lay within 1 to 10 µM.

Consider `O=C(O)c1cc(-c2ccccc2)cc(C2Cc3cc(C(F)(F)F)ccc3O2)c1` (stereo not shown) [Example 64], for which the IC50 was over 10 µM.

Turning to `O=C(O)c1cc(C2CCCC2)cc(C2Cc3cc(C(F)(F)F)ccc3O2)c1` (stereo not shown) [Example 65], the IC50 is over 10 µM.

On to `O=C(O)c1cc(C2CC2)cc(C2Cc3cc(C(F)(F)F)ccc3O2)c1` (stereo not shown) [Example 66], for which the IC50 is 1 to 10 µM.

Consider `Cc1cc(C(=O)O)cc(C2Cc3cc(C(F)(F)F)ccc3O2)c1` (stereo not shown) [Example 67], for which the IC50 was 1 to 10 µM.

With `Cc1c(C(=O)O)cccc1C1Cc2cc(C(F)(F)F)ccc2O1` (stereo not shown) [Example 68], the IC50 is over 10 µM.

Turning to `Cn1cc(-c2cc(C(=O)O)cc(C3Cc4cc(C(F)(F)F)ccc4O3)c2)cn1` (stereo not shown) [Example 69], the IC50 was over 10 µM.

Consider `CCOP(=O)(OCC)c1ccc(-c2cc3ccc(C(F)(F)F)cc3n2C)cc1` [Example 70, diethyl(4-(1-methyl-6-(trifluoromethyl)-1H-indol-2-yl)phenyl)phosphonate], for which the IC50 was over 10 µM.

As to `Cn1c(-c2ccc(P(=O)(O)O)cc2)cc2ccc(C(F)(F)F)cc21` [Example 71], the IC50 is over 10 µM.

As to `CCOP(=O)(O)c1ccc(-c2cc3ccc(C(F)(F)F)cc3n2C)cc1` [Example 72], the IC50 was over 10 µM.

For `NC(=O)c1cccc(C2Cc3cc(C(F)(F)F)ccc3O2)c1F` (stereo not shown) [Example 73], the IC50 is over 10 µM.

Regarding `CNC(=O)c1cccc(C2Cc3cc(C(F)(F)F)ccc3O2)c1F` (stereo not shown) [Example 74], the IC50 was over 10 µM.

Turning to `CN(C)C(=O)c1cccc(C2Cc3cc(C(F)(F)F)ccc3O2)c1F` (stereo not shown) [Example 75], the IC50 is over 10 µM.

`O=C(O)c1cccc(C2CCc3cc(C(F)(F)F)ccc3O2)c1F` (stereo not shown) [Example 76]: the IC50 is over 10 µM.

With `O=C(O)c1cccc(C2Cc3c(cccc3C(F)(F)F)O2)c1F` (stereo not shown) [Example 77], the IC50 was over 10 µM.

Consider `O=C(O)c1cccc(C2Cc3cc(OC(F)(F)F)ccc3O2)c1F` (stereo not shown) [Example 78], for which the IC50 lay in the range of 1 to 10 µM.

For `O=C(O)c1cccc(C2Cc3cc(F)ccc3O2)c1F` (stereo not shown) [Example 79], the IC50 is over 10 µM.

Consider `N#Cc1ccc2c(c1)CC(c1cccc(C(=O)O)c1F)O2` (stereo not shown) [Example 80], for which the IC50 was over 10 µM.

`O=C(O)c1cccc(C2Cc3cc(F)c(F)cc3O2)c1F` (stereo not shown) [Example 81]: the IC50 was over 10 µM.

For `O=C(O)c1cccc(C2Cc3cc(F)cc(F)c3O2)c1F` (stereo not shown) [Example 82], the IC50 is over 10 µM.

For `O=C(O)c1cccc(C2Cc3cccc(C(F)(F)F)c3O2)c1F` (stereo not shown) [Example 83], the IC50 was over 10 µM.

Consider `O=C(O)c1cccc(C2Cc3cc(F)cc(Cl)c3O2)c1F` (stereo not shown) [Example 84], for which the IC50 is over 10 µM.

With `O=C(O)c1c(F)ccc(C2Cc3cc(C(F)(F)F)ccc3O2)c1F` (stereo not shown) [Example 85], the IC50 is over 10 µM.

In the case of `CC1(c2cccc(C(=O)O)c2F)Cc2cc(C(F)(F)F)ccc2O1` (stereo not shown) [Example 86], the IC50 fell in the range of 1 to 10 µM.

In the case of `O=C(O)c1cccc(C2Cc3cc(C(F)(F)F)ccc3O2)c1F` (stereo not shown) [Example 87], the IC50 is over 10 µM.

The values above are taken from US20250326777A1, “COMPOUNDS, COMPOSITIONS AND METHODS THEREOF” (HEPAITECH (BEIJING) BIOPHARMA TECHNOLOGY CO., LTD., priority 2022, published 2025).
